# Experiment: Case treatment of a patient with confirmed anti-NMDAR encephalitis
# Format: in vivo
# Settings: for response to antipsychotics: high doses: aripiprazole 20-30 mg, clozapine 300-500 mg, clozapine 500 mg plus paliperidone 9 mg, before the diagnosis was confirmed
SMILES,"clinical improvement (sodium benzoate 1000 mg per day for 2 months, patient able to return to a normal life)","psychotic symptoms including dissociation and agitation (sodium benzoate 1000 mg per day for 2 months, patient refractory to antipsychotics, ECT and immunotherapy)",response to antipsychotics
"O=C([O-])c1ccccc1.[Na+] [Sodium benzoate, sodium benzoate]",obvious clinical improvement,reduced,–
O=C1CCc2ccc(OCCCCN3CCN(c4cccc(Cl)c4Cl)CC3)cc2N1 [aripiprazole],–,–,very poor response
Cc1nc2n(c(=O)c1CCN1CCC(c3noc4cc(F)ccc34)CC1)CCCC2O (stereo not shown) [paliperidone],–,–,very poor response

# — patent publication US20210228515A1, “BENZOIC ACID OR A SALT AND DERIVATIVE THEREOF FOR USE IN PREVENTING OR TREATING ANTI-N-METHYL-D-ASPARTATE RECEPTOR ENCEPHALITIS” (EXCELSIOR PHARMATECH LABS, priority 2018, published 2021)
